Test results reported in publication PMC10882696, “Novel 5-Substituted Oxindole Derivatives as Bruton’s Tyrosine Kinase Inhibitors: Design, Synthesis, Docking, Molecular Dynamics Simulation, and Biological Evaluation” (ACS Omega, 2024).
Entries after “also recorded” stand apart in the source; their conditions may differ. Where a name gives a salt, the structure may show the parent alone.

Key:
[1] = system: RAMOS; assay: 3 day MTS cytotoxicity assay, RAMOS; format: cell-based, human; conditions: for activity in RAMOS cells: BTK-high; for IC50: Homo sapiens, Ramos, BTK-positive, mean ± SD, n ≥ 6
Procedure: (§1) The cytotoxic activity of all the 10 compounds was tested under in vitro conditions using a 3 day standard 3-(4,5-dimethylthiazol-2yl)-5-(3-carboxymethoxyphenyl)-2-(4-sulfophenyl)-2H-tetrazolium reduction assay in 384-well plates on a robotic high-throughput screening platform (HighResBio, Boston, MA) as described elsewhere.[38] The IC50 values were calculated from the respective dose–response curves of compounds with Dotmatics (San Diego, CA, USA).

[2] = system: BJ; assay: 3 day MTS cytotoxicity assay, BJ; format: cell-based; conditions: Homo sapiens, non-cancer fibroblasts, mean ± SD, n ≥ 6
Procedure: as §1

[3] = system: U2OS; assay: 3 day MTS cytotoxicity assay, U2OS; format: cell-based; conditions: Homo sapiens, ITK/BTK-negative, mean ± SD, n ≥ 6
Procedure: as §1

[4] = system: K562; assay: 3 day MTS cytotoxicity assay, K562; format: cell-based; conditions: Homo sapiens; K562, BTK-positive; mean ± SD, n ≥ 6
Procedure: as §1

[5] = system: HCT116; assay: 3 day MTS cytotoxicity assay, HCT116; format: cell-based; conditions: Homo sapiens, HCT-116; HCT116, ITK/BTK-negative; mean ± SD, n ≥ 6
Procedure: as §1

[6] = system: JURKAT; assay: 3 day MTS cytotoxicity assay, JURKAT; format: cell-based; conditions: Homo sapiens, ITK-positive, mean ± SD, n ≥ 6
Procedure: as §1

[7] = system: CCRF-CEM; assay: 3 day MTS cytotoxicity assay, CCRF-CEM; format: cell-based; conditions: Homo sapiens, ITK-positive, mean ± SD, n ≥ 6
Procedure: as §1

[8] = system: A549; assay: 3 day MTS cytotoxicity assay, A549; format: cell-based; conditions: Homo sapiens; A549, ITK/BTK-negative; mean ± SD, n ≥ 6
Procedure: as §1

[9] = system: HCT116p53^–/–; assay: 3 day MTS cytotoxicity assay, HCT116p53-/-; format: cell-based; conditions: ITK/BTK-negative, mean ± SD, n ≥ 6
Procedure: as §1

[10] = system: MRC-5; assay: 3 day MTS cytotoxicity assay, MRC-5; format: cell-based; conditions: Homo sapiens, MRC5; MRC-5, non-cancer fibroblasts; mean ± SD, n ≥ 6
Procedure: as §1

[11] = MDR1-MDCK permeability (blood–brain barrier model); format: in vitro ADME; conditions: dog
Procedure: (§2) Selected compounds were assayed for human plasma and liver microsomal stability in vitro, PAMPA and cellular permeability models of gastrointestinal resorption, and the blood–brain barrier using Caco-2 and MDR1-MCDK cells as previously described.[38] Samples were analyzed in an Agilent RapidFire 300 High-Throughput Mass Spectrometry System (RF-MS; Agilent, Wakefield, MA) with subsequent detection in a Qtrap 5500 mass spectrometer (AB Sciex, Concord, Canada).

[12] = system: MDR1; assay: MDR1-MDCK permeability (blood–brain barrier model); format: in vitro ADME; conditions: dog
Procedure: as §2

[13] = system: MDR1-MDCK cells; assay: MDR1-MDCK permeability (blood–brain barrier model); format: in vitro ADME
Procedure: as §2

[14] = Liver microsomal stability; format: in vitro ADME; conditions: human liver microsomes, intrinsic clearance category
Procedure: as §2

[15] = Plasma protein binding; format: in vitro ADME; conditions: in vitro, read-out: plasma protein binding (% bound) (converted)
[16] = Caco-2 permeability (gastrointestinal resorption model); format: in vitro ADME; conditions: human, Caco-2
Procedure: as §2

[17] = system: Caco-2 cells; assay: as above; format: in vitro ADME
Procedure: as §2

[18] = Parallel artificial membrane permeability assay (PAMPA); format: in vitro ADME; conditions: passive diffusion
Procedure: as §2

[19] = Plasma stability; format: in vitro ADME; conditions: human plasma, in vitro
Procedure: as §2

Compound	melting point [°C]	activity in RAMOS cells [1]	IC50 [1] [µM]	IC50 [2] [µM]	IC50 [3] [µM]	IC50 [4] [µM]	IC50 [5] [µM]	IC50 [6] [µM]	IC50 [7] [µM]	IC50 [8] [µM]	IC50 [9] [µM]	IC50 [10] [µM]	also measured
O=C1Nc2ccc(S(=O)(=O)N3CCN(C(=O)c4cccc(C(F)(F)F)c4)CC3)cc2C1=C1CCCC1 [9j, 3-Cyclopentylidene-5-((4-(3-(trifluoromethyl)benzoyl)piperazin-1-yl)sulfonyl)indolin-2-one]	–	no activity	> 50	> 50	23.6 ± 6.44	> 50	> 50	> 50	> 50	> 50	> 50	27.4 ± 6.8	–
O=C1Nc2ccc(S(=O)(=O)N3CCN(C(=O)C4CC4)CC3)cc2C1=C1CCCC1 [9c, 3-Cyclopentylidene-5-((4-(cyclopropanecarbonyl)piperazin-1-yl)sulfonyl)indolin-2-one]	–	did not show any activity	> 50	> 50	> 50	> 50	> 50	50	> 50	> 50	> 50	> 50	–
C=CC(=O)N1CCC[C@@H](n2nc(-c3ccc(Oc4ccccc4)cc3)c3c(N)ncnc32)C1 [ibrutinib, Ibrutinib, reference compound]	–	–	0.3	29 ± 1	23 ± 3	27 ± 3	30 ± 1	5 ± 1	4 ± 1	–	30 ± 1	28	–
O=C1Nc2ccc(S(=O)(=O)N3CCN(C(=O)c4cccnc4)CC3)cc2C1=C1CCCC1 [9i, 3-Cyclopentylidene-5-((4-nicotinoylpiperazin-1-yl)sulfonyl)indolin-2-one]	–	no activity	> 50	> 50	> 50	> 50	> 50	> 50	> 50	> 50	> 50	> 50	–
O=C1Nc2ccc(S(=O)(=O)N3CCN(C(=O)c4cccc(Cl)c4)CC3)cc2C1=C1CCCC1 [9e, 5-((4-(3-Chlorobenzoyl)piperazin-1-yl)sulfonyl)-3-cyclopentylideneindolin-2-one]	–	did not show any activity	> 50	> 50	> 50	> 50	> 50	> 50	> 50	> 50	> 50	> 50	–
O=C1Nc2ccc(S(=O)(=O)N3CCN(C(=O)c4cccc(Br)c4)CC3)cc2C1=C1CCCC1 [9f, 5-((4-(3-Bromobenzoyl)piperazin-1-yl)sulfonyl)-3-cyclopentylideneindolin-2-one]	–	selective cytotoxicity; also recorded: showed activity; also recorded: good anticancer activity in the micromole range	2.06 ± 0.43	> 50	> 50	> 50	> 50	> 50	> 50	> 50	> 50	> 50	recovery [11]: 79.2%; Papp [12]: 3.2 ×10⁻⁶ cm/s; efflux ratio [12]: 6.93; MDR1-MDCK CNS (−ive/+ive) [13]: CNS –ive; active efflux [13]: active efflux: yes; microsomal stability (clearance) [14]: medium; fraction unbound [15]: 0.043; Papp [16]: 10.6 ×10⁻⁶ cm/s; efflux ratio [16]: 3.79; recovery [16]: 74.5%; active efflux ([17]; Caco-2): active efflux: yes; Caco-2 category ([17]; Caco-2 permeability): medium permeability; also recorded: moderate; PAMPA category [18]: low; plasma stability (category) [19]: stable
O=C1Nc2ccc(S(=O)(=O)N3CCN(C(=O)c4cccc(F)c4)CC3)cc2C1=C1CCCC1 [9g, 3-Cyclopentylidene-5-((4-(3-fluorobenzoyl)piperazin-1-yl)sulfonyl)indolin-2-one]	–	selective cytotoxicity; also recorded: showed activity; also recorded: good anticancer activity in the micromole range	2.09 ± 0.47	> 50	> 50	> 50	> 50	> 50	46.5 ± 5.81	> 50	> 50	> 50	–
O=C1Nc2ccc(S(=O)(=O)N3CCN(C(=O)c4ccccc4)CC3)cc2C1=C1CCCC1 [9d, 5-((4-Benzoylpiperazin-1-yl)sulfonyl)-3-cyclopentylideneindolin-2-one]	–	did not show any activity	> 50	> 50	> 50	> 50	> 50	> 50	> 50	> 50	> 50	> 50	–

Further lines, with some results ahead:

melting point [°C]	Compound	activity in RAMOS cells [1]	IC50 [1] [µM]	IC50 [2] [µM]	IC50 [3] [µM]	IC50 [4] [µM]	IC50 [5] [µM]	IC50 [6] [µM]	IC50 [7] [µM]	IC50 [8] [µM]	IC50 [9] [µM]	IC50 [10] [µM]	also measured
130 to 135	CCCCC(=O)N1CCN(S(=O)(=O)c2ccc3c(c2)C(=C2CCCC2)C(=O)N3)CC1 (as salt: hydrochloride) [9h, 3-Cyclopentylidene-5-((4-pentanoylpiperazin-1-yl)sulfonyl)indolin-2-one]	–	–	–	–	–	–	–	–	–	–	–	–
140 to 145	O=C1Nc2ccc(S(=O)(=O)N3CCN(C(=O)C4CCCCC4)CC3)cc2C1=C1CCCC1 (as salt: hydrochloride) [9b, 5-((4-(Cyclohexanecarbonyl)piperazin-1-yl)sulfonyl)-3-cyclopentylideneindolin-2-one]	–	–	–	–	–	–	–	–	–	–	–	–
136 to 142	O=C1Nc2ccc(S(=O)(=O)N3CCN(C(=O)C4CC4)CC3)cc2C1=C1CCCC1 (as salt: hydrochloride) [9c, 3-Cyclopentylidene-5-((4-(cyclopropanecarbonyl)piperazin-1-yl)sulfonyl)indolin-2-one]	–	–	–	–	–	–	–	–	–	–	–	–
130 to 135	O=C1Nc2ccc(S(=O)(=O)N3CCN(C(=O)c4cccc(Br)c4)CC3)cc2C1=C1CCCC1 (as salt: hydrochloride) [9f, 5-((4-(3-Bromobenzoyl)piperazin-1-yl)sulfonyl)-3-cyclopentylideneindolin-2-one]	–	–	–	–	–	–	–	–	–	–	–	–
195 to 200	O=C1Nc2ccc(S(=O)(=O)N3CCN(C(=O)c4cccnc4)CC3)cc2C1=C1CCCC1 (as salt: hydrochloride) [9i, 3-Cyclopentylidene-5-((4-nicotinoylpiperazin-1-yl)sulfonyl)indolin-2-one]	–	–	–	–	–	–	–	–	–	–	–	–
165 to 171	CC(C)C(=O)N1CCN(S(=O)(=O)c2ccc3c(c2)C(=C2CCCC2)C(=O)N3)CC1 [9a, 3-Cyclopentylidene-5-((4-isobutyrylpiperazin-1-yl)sulfonyl)indolin-2-one]	no activity	> 50	> 50	> 50	> 50	> 50	> 50	> 50	> 50	> 50	> 50	–
133 to 138	O=C1Nc2ccc(S(=O)(=O)N3CCN(C(=O)c4cccc(Cl)c4)CC3)cc2C1=C1CCCC1 (as salt: hydrochloride) [9e, 5-((4-(3-Chlorobenzoyl)piperazin-1-yl)sulfonyl)-3-cyclopentylideneindolin-2-one]	–	–	–	–	–	–	–	–	–	–	–	–
139 to 143	O=C1Nc2ccc(S(=O)(=O)N3CCN(C(=O)c4cccc(C(F)(F)F)c4)CC3)cc2C1=C1CCCC1 (as salt: hydrochloride) [9j, 3-Cyclopentylidene-5-((4-(3-(trifluoromethyl)benzoyl)piperazin-1-yl)sulfonyl)indolin-2-one]	–	–	–	–	–	–	–	–	–	–	–	–
132 to 135	O=C1Nc2ccc(S(=O)(=O)N3CCN(C(=O)c4cccc(F)c4)CC3)cc2C1=C1CCCC1 (as salt: hydrochloride) [9g, 3-Cyclopentylidene-5-((4-(3-fluorobenzoyl)piperazin-1-yl)sulfonyl)indolin-2-one]	–	–	–	–	–	–	–	–	–	–	–	–
135 to 140	O=C1Nc2ccc(S(=O)(=O)N3CCN(C(=O)c4ccccc4)CC3)cc2C1=C1CCCC1 (as salt: hydrochloride) [9d, 5-((4-Benzoylpiperazin-1-yl)sulfonyl)-3-cyclopentylideneindolin-2-one]	–	–	–	–	–	–	–	–	–	–	–	–
